From ChEMBL document CHEMBL4823307, “Discovery of benzimidazole derivatives as potent and selective aldehyde dehydrogenase 1A1 (ALDH1A1) inhibitors with glucose consumption improving activity” (Bioorg Med Chem, 2021)
Calls of active or inactive are those of the source. No cut-off for these calls is given here.

Key:
[1] = biological target: T1, Aldehyde dehydrogenase 1A1 (Homo sapiens) (UniProt P00352); assay: Inhibition of human ALDH1A1 assessed as NADH formation using propionaldehyde as substrate at 10 uM by spectrophotometry
T1 sequence (whole entry): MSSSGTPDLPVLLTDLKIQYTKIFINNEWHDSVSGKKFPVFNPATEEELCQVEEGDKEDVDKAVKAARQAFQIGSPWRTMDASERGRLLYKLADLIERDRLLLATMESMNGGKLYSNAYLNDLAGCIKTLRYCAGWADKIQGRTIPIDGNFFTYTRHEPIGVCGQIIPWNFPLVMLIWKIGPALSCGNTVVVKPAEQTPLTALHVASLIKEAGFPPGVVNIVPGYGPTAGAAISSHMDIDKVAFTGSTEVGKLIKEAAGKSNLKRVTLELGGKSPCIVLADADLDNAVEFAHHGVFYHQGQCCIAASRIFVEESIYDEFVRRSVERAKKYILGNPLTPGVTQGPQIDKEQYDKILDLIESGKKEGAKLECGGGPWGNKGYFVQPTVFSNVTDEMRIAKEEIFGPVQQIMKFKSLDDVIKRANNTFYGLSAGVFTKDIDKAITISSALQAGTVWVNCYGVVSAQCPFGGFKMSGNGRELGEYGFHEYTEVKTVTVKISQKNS

[2] = Cytotoxicity against human HepG2 cells assessed as cell viability at 0.1 uM incubated for 24 hrs by MTT assay relative to control; assay type: cell-based; details: read-out: Activity
[3] = Cytotoxicity against human HepG2 cells assessed as cell viability at 1 uM incubated for 24 hrs by MTT assay relative to control; assay type: cell-based; details: read-out: Activity
[4] = Cytotoxicity against human HepG2 cells assessed as cell viability at 10 uM incubated for 24 hrs by MTT assay relative to control; assay type: cell-based; details: read-out: Activity
HepG2 = assay: Increase in glucose consumption in human HepG2 cells at 10 uM by glucose oxidase assay; assay type: functional

Compound	inhibition [1] [%]	other results
COc1cccc(Cn2c(CN3CCN(C(=O)C4CC4)CC3)nc3ccccc32)c1	44.4	
Cc1cccc(Cn2c(NC3CCN(C(=O)c4ccco4)CC3)nc3ccccc32)c1	27.9	
Cc1ccccc1Cn1c(CN2CCN(C(=O)C3CC3)CC2)nc2ccccc21	29.1	
CC(C)Cn1c(CN2CCN(C(=O)C3CC3)CC2)nc2ccccc21	13.1	
O=C(C1CC1)N1CCN(Cc2nc3ccccc3n2Cc2ccc(F)cc2)CC1	32.7	
CC(C)CCn1c(CN2CCN(C(=O)c3ccco3)CC2)nc2ccccc21	42.1	
CC(C)CCn1c(NC2CCN(C(=O)C3CC3)CC2)nc2ccccc21	10.8	
CC(C)CCn1c(OC2CCN(C(=O)C3CC3)CC2)nc2ccccc21	56.4	
CC(C)CCn1c(CN2CCN(C(=O)c3ccco3)CC2)nc2c1c(=O)n(C)c(=O)n2C		viability at 24 h, 0.1 µM [2]: 100%; viability at 24 h, 1 µM [3]: 100%; viability at 24 h, 10 µM [4]: 98.2%; Activity (HepG2): inactive
O=C(C1CC1)N1CCN(Cc2nc3ccccc3n2CC2CC2)CC1	21.2	
CC(C)CCn1c(CN2CCN(C(=O)C3CC3)CC2)nc2ccccc21	70	
O=C(C1CC1)N1CCN(Cc2nc3ccccc3n2Cc2cccc(F)c2)CC1	27.1	
O=C(C1CC1)N1CCN(Cc2nc3ccccc3n2CC2CCCC2)CC1	44.5	
O=C(C1CC1)N1CCN(Cc2nc3ccccc3n2Cc2ccccc2F)CC1	40.7	
O=C(C1CC1)N1CCN(Cc2nc3ccccc3n2Cc2ccc(Cl)cc2)CC1	56.6	
CCn1c(CN2CCN(C(=O)C3CC3)CC2)nc2ccccc21	20.8	
O=C(C1CC1)N1CCN(Cc2nc3ccccc3n2Cc2ccccc2)CC1	23.9	
Cc1ccc(Cn2c(CN3CCN(C(=O)C4CC4)CC3)nc3ccccc32)cc1	51.5	
CC(C)CCn1c(OC2CCN(C(=O)c3ccco3)CC2)nc2ccccc21	30.8	
Cc1cccc(Cn2c(OC3CCN(C(=O)C4CC4)CC3)nc3ccccc32)c1	80.6	
O=C(C1CC1)N1CCN(Cc2nc3ccccc3n2Cc2ccccc2C(F)(F)F)CC1	56.3	
CCCCn1c(CN2CCN(C(=O)C3CC3)CC2)nc2ccccc21	18.2	
Cc1cccc(Cn2c(NC3CCN(C(=O)C4CC4)CC3)nc3ccccc32)c1	49.1	
Cc1cccc(Cn2c(OC3CCN(C(=O)c4ccco4)CC3)nc3ccccc32)c1	68.3	

Continued, in another order:

inhibition [1] [%]	Compound	other results
64.9	Cc1ccc(C(=O)N2CCN(Cc3nc4ccccc4n3Cc3cccc(C)c3)CC2)cc1	
24.3	Cc1cccc(Cn2c(CN3CCN(C(=O)c4ccc([N+](=O)[O-])cc4)CC3)nc3ccccc32)c1	
22.9	Cc1cccc(Cn2c(CN3CCN(C(=O)c4ccc(C(F)(F)F)cc4)CC3)nc3ccccc32)c1	
69.1	Cc1cccc(Cn2c(CN3CCN(C(=O)C4CCC4)CC3)nc3ccccc32)c1	
67	CCc1ccc(C(=O)N2CCN(Cc3nc4ccccc4n3Cc3cccc(C)c3)CC2)cc1	
31.9	Cc1cccc(Cn2c(CN3CCN(C(=O)C4CCCCC4)CC3)nc3ccccc32)c1	
67.5	Cc1cccc(Cn2c(CN3CCN(C(=O)C4CCCC4)CC3)nc3ccccc32)c1	
20.6	Cc1cccc(Cn2c(CN3CCN(C(=O)c4ccncc4)CC3)nc3ccccc32)c1	
70.3	CC(=O)N1CCN(Cc2nc3ccccc3n2Cc2cccc(C)c2)CC1	
73.2	Cc1cccc(Cn2c(CN3CCN(C(=O)c4ccco4)CC3)nc3ccccc32)c1	
71.4	Cc1cccc(Cn2c(CN3CCN(C(=O)CC(C)C)CC3)nc3ccccc32)c1	
25.8	Cc1cccc(Cn2c(CN3CCN(C(=O)c4ccc(Br)cc4)CC3)nc3ccccc32)c1	
55.5	COc1ccc(C(=O)N2CCN(Cc3nc4ccccc4n3Cc3cccc(C)c3)CC2)cc1	
67.6	Cc1cccc(Cn2c(CN3CCN(C(=O)c4ccc(C(C)C)cc4)CC3)nc3ccccc32)c1	
60.8	Cc1cccc(Cn2c(CN3CCN(C(=O)c4cccs4)CC3)nc3ccccc32)c1	
20.8	Cc1cccc(Cn2c(CN3CCN(C(=O)c4ccc(C#N)cc4)CC3)nc3ccccc32)c1	
79	CCCC(=O)N1CCN(Cc2nc3ccccc3n2Cc2cccc(C)c2)CC1	
24.5	Cc1cccc(Cn2c(CN3CCN(C(=O)c4cccnc4)CC3)nc3ccccc32)c1	
23.2	Cc1cccc(Cn2c(CN3CCN(C(=O)c4ccc(Cl)cc4)CC3)nc3ccccc32)c1	
27.1	Cc1cccc(Cn2c(CN3CCN(C(=O)c4ccc(F)cc4)CC3)nc3ccccc32)c1	
60.9	Cc1cccc(Cn2c(CN3CCN(C(=O)c4ccccc4)CC3)nc3ccccc32)c1	
37	O=C(C1CC1)N1CCN(Cc2nc3ccccc3n2Cc2ccc(C(F)(F)F)cc2)CC1	
